One may read the IC50 as the midpoint of a concentration-inhibition curve. A lower IC50 goes with greater potency. Usually CC50 stands for the concentration at which the toxic effect on the cells reaches its halfway point.

For 15 compounds, IC50 and CC50 results are on record in patent US20140286903A1, “Substituted Purine Nucleosides, Phosphoramidate and Phosphordiamidate Derivatives for Treatment if Viral Infections” (INHIBITEX, INC., priority 2011, published 2014).

The subject of data set [1] is HCV replicon (Genotype 1b). Description: Luciferase genotype 1b replicon potency assay. In kind it is cell-based, hepatitis C virus. The following applies: Hepatitis C virus, Huh-7, Huh7 luciferase-reporter genotype 1b subgenomic replicon cells; Renilla luciferase reporter activity; 50% decrease vs untreated cells. As for the experimental part:
(§1) Further to the above Examples, representative compounds, prepared according to the examples were tested for potency in an HCV replicon assay (Genotype 1b) for activity against the virus (EC50) and toxicity to the cells (CC50).
(§2) Huh7 Replicon Cell Lines and Cell Culture Conditions: A luciferase-reporter genotype 1b subgenomic replicon cell line, and a genotype 1a full-length replicon cell line were obtained from Apath, LLC, Brooklyn, N.Y.: All cell lines were passaged twice a week by splitting 4 or 6 fold. Cells were maintained in DMEM-high glucose medium (HyClone, Logan, Utah) supplemented with 9% FBS (HyClone), 2 mM glutamine (Invitrogen, Carlsbad, Calif.), 100 U/mL PenStrep (Invitrogen). Media also contained 0.25 mg/mL of the antibiotic G-418 to maintain stable expression of the replicon (Invitrogen). Incubation was performed at 37° C. in 5% CO2 atmosphere. Replicon cell lines were used until they accumulated 15-to-18 passages, after which cells were restarted from the frozen stock. Seeding cell counts were routinely determined using an automatic Cedex HiRes cell counter (Flownomics Analytical Instruments, Madison, Wis.) or manually using INCYTO C-Chip™ Disposable Hemacytometers (Fisher Scientific, Pittsburg, Pa.).
Luciferase Genotype 1b Replicon Potency Assay. Replicon cells were seeded into white 96-well plates (Nunc/VWR) at a density of 2×10^4 cells/well in medium without G-418. A Stacker Multidrop Liquid Dispenser (MTX Lab Systems, Vienna, Va.) was employed to ensure uniform and fast cell seeding into multiple plates. 18-24 h after cell plating, inhibitors were added and cells were incubated for additional 24, 48, or 72 h (as indicated). Compounds were tested in triplicates and quadruplicates at 3× or 4× serial dilutions over a range of 0.0001-to-10 μM concentrations. HCV replication was monitored by Renilla luciferase reporter activity assay using Renilla luciferase reporter (Promega, Madison, Wis.) and a Veritas Luminometer (Turner Biosystems, Sunnyvale, Calif.). 50% and 90% inhibitory concentration (IC50 and IC90) values were calculated as the concentration of compound that results correspondingly in 50% and 90% decreases in the reporter expression as compared to untreated cells. The values were determined by non-linear regression (four-parameter sigmoidal curve fitting) analysis.
(A replicon is a self-replicating genome or part of one, used to study replication in cells.)

A short description of data set [2]: Cytotoxicity assay (CellTiter-Glo). Type of data set: cell-based. As to conditions: human, 72 h incubation, concentration resulting in 50% luminescent signal. The protocol:
as §1, §2
Cytotoxicity Assay. Cells were seeded into 96-well plates at a density of 2×10^4 cells per well. 24 h after cell plating, 11 serial 2× compound dilutions, starting with 100 µM, were applied to the testing plates (3 repeats per compound dilution). Each testing plate was run with a “no-compound” control. Incubation with compounds was continued at 37° C. in a CO2 incubator for 72 h. To determine cell viability, the CellTiter-Glo® assay (Promega, Madison, Wis.) was performed according to the manufacturer's protocol. The compound concentration resulting in 50% luminescent signal was reported as the CC50 concentration.
A general note: ATP-based viability assays read luminescence as a measure of living cells.

[3] abbreviates: Huh7 HCV replicon cells (genotype 1b).

SMILES strings stand for the structures. Some results are limits rather than exact numbers.

In turn, `COc1nc(N)nc2c1ncn2[C@@H]1O[C@H](COP(=O)(N[C@@H](C)C(=O)OC2CCCCC2)Oc2cccc3ccccc23)[C@@H](F)[C@@]1(C)O` (stereo partly drawn) [Example 18, (2S)-Cyclohexyl 2-((((2R,3R,4S,5R)-5-(2-amino-6-methoxy-9H-purin-9-yl)-3-fluoro-4-hydroxy-4-methyltetrahydrofuran-2-yl)methoxy)(naphthalen-1-yloxy)phosphorylamino)propanoate] had an IC50 in data set [1] of 1.3 µM. Also, in data set [2], half-maximal cytotoxicity (CC50 at 72 h) was put at 30 µM.
In the same order, the values of `COc1nc(N)nc2c1ncn2[C@@H]1O[C@H](COP(=O)(N[C@@H](C)C(=O)OC2CCOCC2)Oc2cccc3ccccc23)[C@@H](F)[C@@]1(C)O` (stereo partly drawn) [Example 19, (2S)-Tetrahydro-2H-pyran-4-yl 2-((((2R,3R,4S,5R)-5-(2-amino-6-methoxy-9H-purin-9-yl)-3-fluoro-4-hydroxy-4-methyltetrahydrofuran-2-yl)methoxy)(naphthalen-1-yloxy)phosphorylamino)propanoate] are 1.4 µM and 77 µM.
For the compound `COc1nc(N)nc2c1ncn2[C@@H]1O[C@H](COP(=O)(N[C@@H](C)C(=O)OC2CCCC2)Oc2cccc3ccccc23)[C@@H](F)[C@@]1(C)O` (stereo partly drawn) [Example 17, (2S)-Cyclopentyl 2-((((2R,3R,4S,5R)-5-(2-amino-6-methoxy-9H-purin-9-yl)-3-fluoro-4-hydroxy-4-methyltetrahydrofuran-2-yl)methoxy)(naphthalen-1-yloxy)phosphorylamino)propanoate], the IC50 in data set [1] was 0.45 µM. This compound also registered a CC50 at 72 h in data set [2] of 40 µM.
With `COc1nc(N)nc2c1ncn2[C@@H]1O[C@H](COP(=O)(N[C@@H](C)C(=O)OCC(C)(C)C)N[C@@H](C)C(=O)OCC(C)(C)C)[C@@H](F)[C@@]1(C)O` [Example 27, (2S,2′S)-Neopentyl 2,2′-((((2R,3R,4S,5R)-5-(2-amino-6-methoxy-9H-purin-9-yl)-3-fluoro-4-hydroxy-4-methyltetrahydrofuran-2-yl)methoxy)phosphoryl)bis(azanediyl)dipropanoate], the half-inhibitory concentration (IC50) in data set [1] was 2.1 µM. The compound further came in with a CC50 at 72 h in data set [2] (setting [3]) greater than 100 µM.
For `C[C@H](NP(=O)(OC[C@H]1O[C@@H](n2cnc3c(N4CCC4)nc(N)nc32)[C@](C)(O)[C@@H]1F)Oc1cccc2ccccc12)C(=O)OCC(C)(C)C` (stereo partly drawn) [Example 23, (2S)-Neopentyl 2-((((2R,3R,4S,5R)-5-(2-amino-6-(azetidin-1-yl)-9H-purin-9-yl)-3-fluoro-4-hydroxy-4-methyltetrahydrofuran-2-yl)methoxy)(naphthalen-1-yloxy)phosphorylamino)propanoate], the IC50 in data set [1] worked out at 0.9 µM. The cytotoxic concentration (CC50) at 72 h in data set [2] was found to be 49 µM.
Take `C[C@]1(O)[C@H](F)[C@@H](CO)O[C@@H]1n1cnc2c(Cl)nc(N)nc21` [Example 5, (2S,3R,4R,5R)-2-(2-amino-6-chloro-9H-purin-9-yl)-4-fluoro-5-(hydroxymethyl)-3-methyltetrahydrofuran-3-ol]: the IC50 in data set [1] was greater than 100 µM. This compound also came in with a cytotoxic concentration (CC50) at 72 h in data set [2] (setting [3]) greater than 100 µM.
For the compound `COc1nc(N)nc2c1ncn2[C@@H]1O[C@H](COP(=O)(N[C@@H](C)C(=O)OCC(C)(C)C)Oc2cccc3ccccc23)[C@@H](F)[C@@]1(C)O` (stereo partly drawn) [Example 16, (2S)-Neopentyl 2-((((2R,3R,4S,5R)-5-(2-amino-6-methoxy-9H-purin-9-yl)-3-fluoro-4-hydroxy-4-methyltetrahydrofuran-2-yl)methoxy)(naphthalen-1-yloxy)phosphorylamino)propanoate], the IC50 in data set [1] is 0.37 µM. This compound gave a CC50 at 72 h in data set [2] of 29 µM.
With `COc1nc(N)nc2c1ncn2[C@@H]1O[C@H](CO)[C@@H](F)[C@@]1(C)O` [Example 2, (2R,3S,4R,5R)-2-(2-amino-6-methoxy-9H-purin-9-yl)-4-fluoro-5-(hydroxymethyl)-3-methyltetrahydrofuran-3-ol], the IC50 in data set [1] was greater than 100 µM. In data set [2] (setting [3]), this compound registered a half-maximal cytotoxic concentration (CC50) at 72 h greater than 100 µM.
Take `CCOc1nc(N)nc2c1ncn2[C@@H]1O[C@H](COP(=O)(N[C@@H](C)C(=O)OCC(C)(C)C)Oc2cccc3ccccc23)[C@@H](F)[C@@]1(C)O` (stereo partly drawn) [Example 20, (2S)-Neopentyl 2-((((2R,3R,4S,5R)-5-(2-amino-6-ethoxy-9H-purin-9-yl)-3-fluoro-4-hydroxy-4-methyltetrahydrofuran-2-yl)methoxy)(naphthalen-1-yloxy)phosphorylamino)propanoate]: in data set [1], the IC50 amounted to 0.62 µM. Further, it took 23 µM to reach half-maximal cytotoxicity in data set [2] (CC50 at 72 h).
As to `C[C@@]1(O)[C@H](F)[C@@H](CO)O[C@H]1n1ccc(=O)[nH]c1=O` [Example 10, 1-((2R,3S,4R,5R)-4-Fluoro-3-hydroxy-5-(hydroxymethyl)-3-methyltetrahydrofuran-2-yl)pyrimidine-2,4(1H,3H)-dione], in data set [1], the half-inhibitory concentration (IC50) was 23 µM. The same compound yielded a CC50 at 72 h in data set [2] (setting [3]) greater than 100 µM.
`COc1nc(N)nc2c1ncn2[C@@H]1O[C@H](CO)[C@H](F)[C@@]1(C)O` [Example 11, (2R,3S,4S,5R)-2-(2-Amino-6-methoxy-9H-purin-9-yl)-4-fluoro-5-(hydroxymethyl)-3-methyltetrahydrofuran-3-ol] yielded an IC50 in data set [1] greater than 100 µM. In data set [2] (setting [3]), the CC50 at 72 h was greater than 100 µM.
Take `C[C@@]1(O)[C@H](F)[C@@H](CO)O[C@H]1n1cnc2c(=O)[nH]c(N)nc21` [Example 3, 2-amino-9-((2R,3S,4R,5R)-4-fluoro-3-hydroxy-5-(hydroxymethyl)-3-methyltetrahydrofuran-2-yl)-1H-purin-6(9H)-one]: the 50% inhibitory concentration (IC50) in data set [1] was greater than 100 µM. Moreover, the CC50 at 72 h in data set [2] (setting [3]) is greater than 100 µM.
For the compound `COc1nc(N)nc2c1ncn2[C@@H]1O[C@H](COP(=O)(N[C@@H](C)C(=O)OCc2ccccc2)Oc2cccc3ccccc23)[C@@H](F)[C@@]1(C)O` (stereo partly drawn) [Example 12, (2S)-Benzyl 2-((((2R,3R,4S,5R)-5-(2-amino-6-methoxy-9H-purin-9-yl)-3-fluoro-4-hydroxy-4-methyltetrahydrofuran-2-yl)methoxy)(naphthalen-1-yloxy)phosphorylamino)propanoate], the IC50 in data set [1] worked out at 0.77 µM. In addition, the CC50 at 72 h in data set [2] was 48 µM.
On to `COc1nc(N)nc2c1ncn2[C@@H]1O[C@H](COP(=O)(N[C@H](C(=O)OCc2ccccc2)C(C)C)Oc2cccc3ccccc23)[C@H](F)[C@@]1(C)O` (stereo partly drawn) [Example 30, (2S)-Benzyl 2-((((2R,3S,4S,5R)-5-(2-amino-6-methoxy-9H-purin-9-yl)-3-fluoro-4-hydroxy-4-methyltetrahydrofuran-2-yl)methoxy)(naphthalen-1-yloxy)phosphorylamino)-3-methylbutanoate], for which, in data set [1], the IC50 stood at 11 µM. The compound further gave a CC50 at 72 h in data set [2] of 19 µM.
In data set [1], `CCOc1nc(N)nc2c1ncn2[C@@H]1O[C@H](CO)[C@@H](F)[C@@]1(C)O` [Example 6, (2R,3S,4R,5R)-2-(2-amino-6-ethoxy-9H-purin-9-yl)-4-fluoro-5-(hydroxymethyl)-3-methyltetrahydrofuran-3-ol] gave an IC50 greater than 100 µM. The compound also gave a CC50 at 72 h in data set [2] (setting [3]) greater than 100 µM.
